How the values were obtained:
[1] = Stability test: content on storage and shelf life; details: calculated with Arrehnius equation; component of prescription (b) of Example 2
[2] = low dose; cited from earlier work

Row | Structure (SMILES) | Shelf life (time that content maintains more than 90% of initial at 25° C.) [1] | eliminated as unmetabolized form [2]
1 | CSCCC(N)C(=O)O (racemic) [DL-Methionine] | 35.64 months | –
2 | CC(=O)Nc1ccc(O)cc1 [Acetaminophen] | 35.94 months | about 2%
3 | Cn1c(=O)c2c(ncn2C)n(C)c1=O [Caffeine anhydrous] | 89.84 months | –
4 | N[C@@H](CC(=O)[O-])C(=O)[O-].O.[Na+].[Na+] [Sodium L-aspartate monohydrate] | 33.86 months | –

Source: patent US6048540A, “Acetamenophen composition with reduced liver toxicity” (Chong Kun Dang Corp., priority 1997, dated 2000)
